Key:
Type in all cases: in vivo
[1] = tested on: PTZ-induced clonic seizures; experiment: PTZ85 assay, latency of clonic seizures; settings: 1800 micromoles, male cd1/cr mice
Experimental: SCMET (PTZ85) Assay. Male CD1/CR mice weighing from 25-35 g are administrated test compounds (range of 5 doses) 15 minutes prior to PTZ. PTZ is administrated subcutaneously, just caudal to the cranium, at a dose of 85 mg/kg. Animals are then caged individually and observed for 15 minutes. The occurrence and latency to clonic and/or tonic convulsions are recorded. The mice are used once. Ten mice are used in each dose group. […] ED50 is determined from a graph of percentage protection vs log(dose) following the known method of Litchfield^18, where percentage protection refers to the percent of animals in each dose group which are protected against seizures. The compounds of interest were tested at an equivalent dose of 1800 micromoles on male cd1/cr mice using the PTZ85 Assay to induce clonic (repetitive seizures). Both the latency (time of seizure onset) and the number of animals protected increased with the size of the ring, or with increased lipophilicity.

[2] = tested on: Subcutaneous Methylene Tetrazole (SCMET) seizures; experiment: Subcutaneous methylene tetrazole (SCMET) test, rats, oral, time to peak effect
[3] = tested on: Maximal Electroshock (MES) seizures; experiment: Maximal electroshock (MES) test, rats, oral, time to peak effect; settings: for Anticonvulsant potency compared with VPA (in words): summary of Table 2
Experimental: Anticonvulsant testing was conducted at the antiepileptic screening facility of the National Institute for Neurological Disorders and Stroke in Rockville, Md. Initial tests were done in mice (i.p.) followed by oral and i.p. administration to rats. Neurotoxicity was evaluated with the rotarod test. Maximal electroshock (MES) and subcutaneous methylene tetrazole (SCMET) or pentylene tetrazole (PTZ) were the most common tests performed. Typical procedures are described below. MES Assay. Male CD1/CR mice weighing from 25-35 g are administrated test compounds 15 minutes prior to MES. Mice are challenged by pulsed electrical stimulation (50 mA, 0.4 s duration, pulse width 0.5 ms, 60 pulses/sec) via corneal electrodes to induce seizure. Mice are observed post-stimulation for the onset of tonic seizures, and considered to have a tonic seizure only if there is a prolonged extension (>90° from plane of body) of the hind legs. […] Ten mice are used in each group. A number of VPA analogues and their sodium salts were tested for their efficacy as anticonvulsants and for their toxicity using the MES Assay and rotarod test.

[4] = tested on: rotarod test (neurotoxicity); experiment: Rotarod neurotoxicity test (TOX), rats, oral
Experimental: Anticonvulsant testing was conducted at the antiepileptic screening facility of the National Institute for Neurological Disorders and Stroke in Rockville, Md. Initial tests were done in mice (i.p.) followed by oral and i.p. administration to rats. Neurotoxicity was evaluated with the rotarod test. Maximal electroshock (MES) and subcutaneous methylene tetrazole (SCMET) or pentylene tetrazole (PTZ) were the most common tests performed. Typical procedures are described below.
Rotorod Test. Acute drug induced neurotoxicity is detected in mice using the standard rotorod test. An untreated mouse, when placed on a 6 rpm rotation rod, can maintain its equilibrium for a prolonged period of time.
A number of VPA analogues and their sodium salts were tested for their efficacy as anticonvulsants and for their toxicity using the MES Assay and rotarod test. In particular, the following compounds (as shown in the structures below) were tested: 332059U (sodium salt of VPA), 325071 (known compound, tested for comparison), 325073A (metabolite of VPA), 332060U (4,4-difluoro-2-propylpentanoate, fluorinated analogue of VPA), 341031, and 341032U (conjugated (E,Z)-2,3′-diene VPA analogues).

O=C([O-])/C=C/C=C1CCCCCCC1.[Na+]
Latency of Clonic Seizures [1]: 855 s | Number of Mice Protected Against Clonic Seizures (Out of 10) [1]: 9

O=C([O-])/C=C/C=C1CCCCCC1.[Na+]
Latency of Clonic Seizures [1]: 778 s | Number of Mice Protected Against Clonic Seizures (Out of 10) [1]: 7

O=C([O-])/C=C/C=C1CCCCC1.[Na+]
Latency of Clonic Seizures [1]: 661 s | Number of Mice Protected Against Clonic Seizures (Out of 10) [1]: 4

O=C([O-])/C=C/C=C1CCCC1.[Na+]
Latency of Clonic Seizures [1]: 589 s | Number of Mice Protected Against Clonic Seizures (Out of 10) [1]: 2

C/C=C\C(=C/C)C(=O)[O-].[Na+] [325071A, Sodium (2E,3Z)-2-ethylidenpent-3-enoate]
SCMET N/F = number of animals protected relative to number tested ([2]; 80 mg/kg, 0.25 h): 0/4 | SCMET N/F = number of animals protected relative to number tested ([2]; 80 mg/kg, 0.5 h): 0/4 | SCMET N/F = number of animals protected relative to number tested ([2]; 80 mg/kg, 1.0 h): 1/4 | SCMET N/F = number of animals protected relative to number tested ([2]; 80 mg/kg, 2.0 h): 0/4 | SCMET N/F = number of animals protected relative to number tested ([2]; 80 mg/kg, 4.0 h): 0/4 | SCMET N/F = number of animals protected relative to number tested ([2]; 200 mg/kg, 0.25 h): 2/4 | SCMET N/F = number of animals protected relative to number tested ([2]; 200 mg/kg, 0.5 h): 0/4 | SCMET N/F = number of animals protected relative to number tested ([2]; 200 mg/kg, 1.0 h): 0/4 | SCMET N/F = number of animals protected relative to number tested ([2]; 200 mg/kg, 2.0 h): 1/4 | SCMET N/F = number of animals protected relative to number tested ([2]; 200 mg/kg, 4.0 h): 1/4 | MES N/F = number of animals protected relative to number tested ([3]; 80 mg/kg, 0.25 h): 0/4 | MES N/F = number of animals protected relative to number tested ([3]; 80 mg/kg, 0.5 h): 0/4 | MES N/F = number of animals protected relative to number tested ([3]; 80 mg/kg, 1.0 h): 0/4 | MES N/F = number of animals protected relative to number tested ([3]; 80 mg/kg, 2.0 h): 0/4 | MES N/F = number of animals protected relative to number tested ([3]; 80 mg/kg, 4.0 h): 0/4 | MES N/F = number of animals protected relative to number tested ([3]; 200 mg/kg, 0.25 h): 0/4 | MES N/F = number of animals protected relative to number tested ([3]; 200 mg/kg, 0.5 h): 1/4 | MES N/F = number of animals protected relative to number tested ([3]; 200 mg/kg, 1.0 h): 0/4 | MES N/F = number of animals protected relative to number tested ([3]; 200 mg/kg, 2.0 h): 1/4 | MES N/F = number of animals protected relative to number tested ([3]; 200 mg/kg, 4.0 h): 0/4 | TOX: N/F = number of animals that failed the rotarod test to numbers tested ([4]; 200 mg/kg, 0.25 h): 0/8 | TOX: N/F = number of animals that failed the rotarod test to numbers tested ([4]; 200 mg/kg, 0.5 h): 0/8 | TOX: N/F = number of animals that failed the rotarod test to numbers tested ([4]; 200 mg/kg, 1.0 h): 0/8 | TOX: N/F = number of animals that failed the rotarod test to numbers tested ([4]; 200 mg/kg, 2.0 h): 0/8 | TOX: N/F = number of animals that failed the rotarod test to numbers tested ([4]; 200 mg/kg, 4.0 h): 0/4

CCCC(CC(C)(F)F)C(=O)[O-].[Na+] (centres unmarked) [332060U, Sodium 4,4-difluoro-2-propylpentanoate]
SCMET N/F = number of animals protected relative to number tested ([2]; 100 mg/kg, 0.25 h): 1/4 | SCMET N/F = number of animals protected relative to number tested ([2]; 100 mg/kg, 0.5 h): 1/4 | SCMET N/F = number of animals protected relative to number tested ([2]; 100 mg/kg, 1.0 h): 0/4 | SCMET N/F = number of animals protected relative to number tested ([2]; 100 mg/kg, 2.0 h): 0/4 | SCMET N/F = number of animals protected relative to number tested ([2]; 100 mg/kg, 4.0 h): 0/4 | SCMET N/F = number of animals protected relative to number tested ([2]; 200 mg/kg, 0.25 h): 1/4 | SCMET N/F = number of animals protected relative to number tested ([2]; 200 mg/kg, 0.5 h): 1/4 | SCMET N/F = number of animals protected relative to number tested ([2]; 360 mg/kg, 0.25 h): 3/4 | SCMET N/F = number of animals protected relative to number tested ([2]; 360 mg/kg, 0.5 h): 0/4 | SCMET N/F = number of animals protected relative to number tested ([2]; 360 mg/kg, 1.0 h): 2/4 | SCMET N/F = number of animals protected relative to number tested ([2]; 360 mg/kg, 2.0 h): 1/4 | SCMET N/F = number of animals protected relative to number tested ([2]; 360 mg/kg, 4.0 h): 0/4 | Anticonvulsant efficacy in relation to neurotoxicity (in words) ([2]; summary of Table 2): effective at doses that do not demonstrate neurotoxicity | TOX: N/F = number of animals that failed the rotarod test to numbers tested ([4]; 100 mg/kg, 0.25 h): 0/4 | TOX: N/F = number of animals that failed the rotarod test to numbers tested ([4]; 100 mg/kg, 0.5 h): 0/4 | TOX: N/F = number of animals that failed the rotarod test to numbers tested ([4]; 100 mg/kg, 1.0 h): 0/4 | TOX: N/F = number of animals that failed the rotarod test to numbers tested ([4]; 100 mg/kg, 2.0 h): 0/4 | TOX: N/F = number of animals that failed the rotarod test to numbers tested ([4]; 100 mg/kg, 4.0 h): 0/4 | TOX: N/F = number of animals that failed the rotarod test to numbers tested ([4]; 200 mg/kg, 0.25 h): 0/4 | TOX: N/F = number of animals that failed the rotarod test to numbers tested ([4]; 200 mg/kg, 0.5 h): 0/4 | TOX: N/F = number of animals that failed the rotarod test to numbers tested ([4]; 360 mg/kg, 0.25 h): 0/4 | TOX: N/F = number of animals that failed the rotarod test to numbers tested ([4]; 360 mg/kg, 0.5 h): 0/4 | TOX: N/F = number of animals that failed the rotarod test to numbers tested ([4]; 360 mg/kg, 1.0 h): 0/4 | TOX: N/F = number of animals that failed the rotarod test to numbers tested ([4]; 360 mg/kg, 2.0 h): 0/4 | TOX: N/F = number of animals that failed the rotarod test to numbers tested ([4]; 360 mg/kg, 4.0 h): 0/4

C/C=C\C(=C/C(C)C)C(=O)[O-].[Na+] [341031U, Sodium (2E)-4-methyl-2-[(1Z)-prop-1-en-1-yl]pent-2-enoate]
MES N/F = number of animals protected relative to number tested ([3]; 200 mg/kg, 0.25 h): 3/4 | MES N/F = number of animals protected relative to number tested ([3]; 200 mg/kg, 0.5 h): 2/4 | MES N/F = number of animals protected relative to number tested ([3]; 200 mg/kg, 1.0 h): 0/4 | MES N/F = number of animals protected relative to number tested ([3]; 200 mg/kg, 2.0 h): 0/4 | MES N/F = number of animals protected relative to number tested ([3]; 200 mg/kg, 4.0 h): 0/4 | Anticonvulsant potency compared with VPA (in words) [3]: more potent than VPA | TOX: N/F = number of animals that failed the rotarod test to numbers tested ([4]; 200 mg/kg, 0.25 h): 0/4 | TOX: N/F = number of animals that failed the rotarod test to numbers tested ([4]; 200 mg/kg, 0.5 h): 0/4 | TOX: N/F = number of animals that failed the rotarod test to numbers tested ([4]; 200 mg/kg, 1.0 h): 0/4 | TOX: N/F = number of animals that failed the rotarod test to numbers tested ([4]; 200 mg/kg, 2.0 h): 0/4 | TOX: N/F = number of animals that failed the rotarod test to numbers tested ([4]; 200 mg/kg, 4.0 h): 0/4

CC/C=C(\C=C(C)C)C(=O)[O-].[Na+] [341032U, Sodium (2E)-2-(2-methylprop-1-en-1-yl)pent-2-enoate]
MES N/F = number of animals protected relative to number tested ([3]; 200 mg/kg, 0.25 h): 4/4 | MES N/F = number of animals protected relative to number tested ([3]; 200 mg/kg, 0.5 h): 3/4 | MES N/F = number of animals protected relative to number tested ([3]; 200 mg/kg, 1.0 h): 1/4 | MES N/F = number of animals protected relative to number tested ([3]; 200 mg/kg, 2.0 h): 0/4 | MES N/F = number of animals protected relative to number tested ([3]; 200 mg/kg, 4.0 h): 0/4 | Anticonvulsant potency compared with VPA (in words) [3]: more potent than VPA | TOX: N/F = number of animals that failed the rotarod test to numbers tested ([4]; 200 mg/kg, 0.25 h): 3/4 | TOX: N/F = number of animals that failed the rotarod test to numbers tested ([4]; 200 mg/kg, 0.5 h): 4/4 | TOX: N/F = number of animals that failed the rotarod test to numbers tested ([4]; 200 mg/kg, 1.0 h): 1/4 | TOX: N/F = number of animals that failed the rotarod test to numbers tested ([4]; 200 mg/kg, 2.0 h): 0/4 | TOX: N/F = number of animals that failed the rotarod test to numbers tested ([4]; 200 mg/kg, 4.0 h): 0/4
